The values below come from US20020004493A1, “Method for the treatment of apolipoprotein E related diseases” (priority 1996, published 2002).

The subject of the first test is apoE peptide toxicity (141-149 domain).
Assay: not given
Particulars: peptide with second heparin-binding site, lacking the 141-149 sequence; cited from earlier work.
On to “E211-243: apoE peptide containing a second heparin-binding site but lacking the 141-149 sequence (GERLRARMEEMGSRTRDRLDEVKEQVAEVRAKL; UniProt P02649 229-261, looked up, fragment) [reference compound]”, for which the “bioactivity (toxicity) of apoE peptide” value is “inactive”.

The test is the same for the next values; noted with them: polyanionic glycosaminoglycans; cited from earlier work.
Regarding chondroitin sulfate, the “effect on apoE peptide-mediated toxicity” value is “ablation of peptide-mediated toxicity”.

heparan sulfate: the “effect on apoE peptide-mediated toxicity” value was “ablation of peptide-mediated toxicity”.

With heparin [reference compound], the “effect on apoE peptide-mediated toxicity” value is “ablation of peptide-mediated toxicity”.

The next test has as its system E3- or E4-derived 22 kDa apoE fragment on embryonic chick sympathetic neurons. Description: Effects of apoE 22 kDa peptides on sympathetic neurons in culture, with dermatan sulfate pre-incubation. It counts as cell-based, chicken. Particulars: 4 μM dermatan sulfate, 10 min pre-incubation; overnight exposure to E3- or E4-derived 22 kDa fragment. Here is the method:
Since the 22 kDa fragment contains the domain associated with toxicity and corresponds to the major N-terminal proteolytic fragment of apoE, assessment of the efficacy of a compound can first be screened by measuring the inhibition of the 22 kDa toxicity in vitro. The 22 kDa thrombolytic cleavage fragment product of apoE is neurotoxic and is purified from medium of HEK cells transfected with the gene for human apoE4. Neuronal toxicity is then assessed using dissociated embryonic chick sympathetic neurons in 96 well microtiter plates. Following the addition of the fragments, the cultures are incubated overnight. Viability is then assessed by vital dye staining.
Transfected HEK cells are cultured as previously described (LaDu, M. J., et al., J. Biol. Chem. 258:12348-54 (1983)). The apoE is concentrated from conditioned medium by ultrafiltration (10 kDa cut-off membrane, Amicon) followed by heparin column chromatography (heparin-coupled agarose beads, Sigma). […] The wells are washed with fresh F12 medium and images of the stained cells are collected from each well by using a Diaphot inverted fluorescence microscope connected to a Macintosh IIfx computer equipped with a Framegrabber video card. The number of labeled neurons is quantified from the stored images with NIH Image software (version 1.57).
Consider dermatan sulfate, for which the “toxicity of 22 kDa apoE fragment in treated neurons” value was “toxicity is completely ablated”.

The next test deals with toxic apoE fragments (22 kDa) on embryonic chick sympathetic neurons. Description: Protection of sympathetic neurons against toxic apoE fragments (vital dye survival count). It counts as cell-based, chicken. Particulars: 10 min pre-incubation with compound, then toxic 22 kDa apoE fragments, overnight, read-out: C50, the concentration required to prevent 50% cell death as compared to control. An excerpt: The purified apoE was then digested with thrombin and the resulting fragments separated by HPLC gel filtration chromatography (Bio SEC-Bio Rad). After buffer exchange and lyophilization, the purified 22 kDa fragment was subjected to amino acid analysis. For neurotoxicity studies, lumbar sympathetic chain ganglia were isolated from embryonic day nine chicken embryos (Spafas, Inc., Roanoke, Ill.) under sterile conditions in unsupplemented Ham's F12 medium (Sigma). The dissected chains were exposed to trypsin (0.25%) for 20 minutes at 37° C. The trypsin was inactivated by addition of fetal bovine serum. The chains were washed three times with medium and then triturated with flamed Pasteur pipettes to dissociate the cells. The cells were resuspended in Neurobasal medium (Gibco) and plated into 96-well plates pretreated with poly-ornithine. Dishes were incubated at 37° C. with 5% CO2/95% air. Following overnight incubation, the cells were treated with a range of concentrations of various compounds diluted in F12 medium supplemented with 100 μM putrescine, 20 nM progesterone, 100 μg/ml human transferrin, 30 nM selenium and 1% antibiotics (penicillin-streptomycin). The neuronal cells were pre-incubated for 10 min at 37° C. with a predetermined concentration of compound. The toxic fragments were then added to the culture medium while controls used the corresponding vehicle without the toxic fragments. After overnight incubation, the cells were labeled with a vital dye (5-carboxyfluorescein diacetate, acetoxymethyl ester, Molecular Probes, Eugene, Oreg.) for 30 minutes. The wells were washed with fresh F12 medium and images of the stained cells were collected from each well using a Diaphot inverted fluorescence microscope connected to a MacIntosh IIfx computer equipped with a Framegrabber video card.
Regarding potassium polyvinyl sulfate, the EC50 amounted to 0.035 µM.

Turning to `COc1cc(-c2ccc(N=Nc3c(S(=O)(=O)O)cc4cc(S(=O)(=O)O)cc(N)c4c3O)c(OC)c2)ccc1N=Nc1c(S(=O)(=O)O)cc2cc(S(=O)(=O)O)cc(N)c2c1O` [direct blue 15], the EC50 amounted to 18 µM.

For the compound `CCOc1ccc(Nc2ccc(C(=C3C=CC(=[N+](CC)Cc4cccc(S(=O)(=O)[O-])c4)C=C3)c3ccc(N(CC)Cc4cccc(S(=O)(=O)O)c4)cc3)cc2)cc1` [Coomassie brilliant blue R-250], the EC50 amounted to 35 µM.

For the compound `CCN(Cc1cccc(S(=O)(=O)O)c1)c1ccc(C(=C2C=CC(=[N+](CC)Cc3cccc(S(=O)(=O)[O-])c3)C=C2)c2ccc(S(=O)(=O)O)cc2)cc1` [light green S.F. yellowish], the EC50 was found to be 40 µM.

Regarding `Cc1c(C2(c3cc(Br)c(O)c(Br)c3C)OS(=O)(=O)c3ccccc32)cc(Br)c(O)c1Br` [bromocresol green], the EC50 was 25 µM.

Turning to `O=S(=O)(O)c1ccc(N=Nc2ccc(N=Nc3c(O)c(S(=O)(=O)O)cc4cc(S(=O)(=O)O)ccc34)c(S(=O)(=O)O)c2)cc1` [ponceau S], the EC50 worked out at 5 µM.

With `Cc1cc(-c2ccc(N=Nc3ccc4c(S(=O)(=O)O)cc(S(=O)(=O)O)c(N)c4c3O)c(C)c2)ccc1N=Nc1ccc2c(S(=O)(=O)O)cc(S(=O)(=O)O)c(N)c2c1O` [Evan's blue], the EC50 was 8 µM.

Take `O=S(=O)(O)c1ccc(N=C2C=CC(=C(c3ccc(Nc4ccc(S(=O)(=O)O)cc4)cc3)c3ccc(Nc4ccc(S(=O)(=O)O)cc4)cc3)C=C2)cc1` [methyl blue]: the EC50 came out at 20 µM.

With `O=S1(=O)OC(c2cc(Br)c(O)c(Br)c2)(c2cc(Br)c(O)c(Br)c2)c2ccccc21` [bromophenol blue], the EC50 came to 16 µM.

Consider pentosan sulfate [reference compound], for which the EC50 came to 1.5 µM.

With `O=C(O)c1cc2ccccc2c(N=Nc2c(O)cc(S(=O)(=O)O)c3ccccc23)c1O` [calconcarboxylic acid], the EC50 turned out to be 10 µM.

For the compound `O=S(=O)(O)c1ccc(N=Nc2ccc(N=Nc3c(O)ccc4ccccc34)c(S(=O)(=O)O)c2)cc1` [biebrich scarlet], the EC50 is 40 µM.

Consider “dextran sulfate [dextran sulfate (5 kDa)]”, for which the EC50 worked out at 0.8 µM.

Consider heparan sulfate, for which the EC50 turned out to be 1 µM.

In the case of `O=S(=O)(O)c1ccc2c(N=Nc3ccc(S(=O)(=O)O)c4ccccc34)c(O)c(S(=O)(=O)O)cc2c1` [amaranth], the EC50 worked out at 25 µM.

`Cc1cc(-c2ccc(N=Nc3cc(S(=O)(=O)O)c4ccccc4c3N)c(C)c2)ccc1N=Nc1cc(S(=O)(=O)O)c2ccccc2c1N` [benzopurpurin 4b]: the EC50 stood at 50 µM.

For the compound aniline blue, the EC50 is 25 µM.

On to `O=S(=O)(O)c1ccccc1N=Nc1c(S(=O)(=O)O)cc2cc(S(=O)(=O)O)c(N=Nc3ccccc3S(=O)(=O)O)c(O)c2c1O` [sulfonazo III], for which the EC50 turned out to be 45 µM.

As for `Cc1ccc2nc(-c3ccc(N=NNc4ccc(-c5nc6ccc(C)c(S(=O)(=O)O)c6s5)cc4)cc3)sc2c1S(=O)(=O)O` [thiazol yellow G], the EC50 was determined as 25 µM.

`COc1cc(-c2ccc(N=Nc3ccc4c(S(=O)(=O)O)cc(S(=O)(=O)O)c(N)c4c3O)c(OC)c2)ccc1N=Nc1ccc2c(S(=O)(=O)O)cc(S(=O)(=O)O)c(N)c2c1O` [Chicago sky blue 6b]: the EC50 turned out to be 15 µM.

On to `CCOc1ccc(Nc2ccc(C(=C3C=CC(=[N+](CC)Cc4cccc(S(=O)(=O)[O-])c4)C=C3C)c3ccc(N(CC)Cc4cccc(S(=O)(=O)O)c4)cc3C)cc2)cc1` [Coomassie brilliant blue G-250], for which the EC50 came out at 40 µM.

The same test, now with this note: Gallus gallus, Sympathetic neuron, 10 min pre-incubation with compound, then toxic 22 kDa apoE fragments, overnight, read-out: C50, the concentration required to prevent 50% cell death as compared to control.
As for `Cc1cc(-c2ccc(/N=N/c3c(S(=O)(=O)O)cc4cc(S(=O)(=O)O)cc(N)c4c3O)c(C)c2)ccc1/N=N/c1c(S(=O)(=O)O)cc2cc(S(=O)(=O)O)cc(N)c2c1O` [trypan blue], the EC50 stood at 20 µM.

As for `Cc1ccc(C(=O)Nc2ccc(S(=O)(=O)O)c3cc(S(=O)(=O)O)cc(S(=O)(=O)O)c23)cc1NC(=O)c1cccc(NC(=O)Nc2cccc(C(=O)Nc3cc(C(=O)Nc4ccc(S(=O)(=O)O)c5cc(S(=O)(=O)O)cc(S(=O)(=O)O)c45)ccc3C)c2)c1` [suramin sodium, reference compound], the EC50 was determined as 5 µM.

Regarding `Nc1c(/N=N/c2ccc(-c3ccc(/N=N/c4cc(S(=O)(=O)O)c5ccccc5c4N)cc3)cc2)cc(S(=O)(=O)O)c2ccccc12` [congo red], the EC50 came to 25 µM.

In the case of `O=C(O)C1=CC(=C(c2ccc(O)c(C(=O)O)c2)c2ccc(O)c(C(=O)O)c2)C=CC1=O` [aurintricarboxylic acid], the EC50 came to 11 µM.

Regarding `Nc1c(S(=O)(=O)O)cc(Nc2ccc(Nc3nc(Cl)nc(Nc4ccccc4S(=O)(=O)O)n3)c(S(=O)(=O)O)c2)c2c1C(=O)c1ccccc1C2=O` [cibacron blue], the EC50 was 20 µM.

For `O=C1OC(c2ccc(O)c(S(=O)(=O)O)c2)(c2ccc(O)c(S(=O)(=O)O)c2)c2c(Br)c(Br)c(Br)c(Br)c21` [sulfobromophthalein], the EC50 was 32 µM.
